# Results reported in patent US6600063B1, “Derivatives of phenyl 4-aminosalicylate and method of making the same” (priority 2000, dated 2003).
# Experiments:
# Assay in all cases: microbe, parasite or virus in culture
# Format in all cases: cell-based
# [1] = tested on: M. tuberculosis EMB-R strain; conditions: Mycobacterium tuberculosis, read-out: MIC EMB-R (ug/ml)
# [2] = tested on: M. tuberculosis strain resistant to rifampin (ATCC 35838); conditions: Mycobacterium tuberculosis, ATCC35838, read-out: MIC RMP-R (ug/ml)
# [3] = tested on: M. tuberculosis ETA-R strain; conditions: Mycobacterium tuberculosis, read-out: MIC ETA-R (ug/ml)
# [4] = tested on: M. tuberculosis strain resistant to isoniazid (ATCC 35822); conditions: Mycobacterium tuberculosis, ATCC35822, read-out: MIC INH-R (ug/ml)
smiles,measurement,setting,value
O=C(Oc1ccccc1)c1ccc(NC(=S)Nc2ccccc2)cc1O [SAMPLE ID 131326],MIC,[1],0.2 µg/mL
same,MIC,[2],0.2 µg/mL
same,MIC,[3],0.2 µg/mL
same,MIC,[4],≤ 0.1 µg/mL
